Assays:
[1] = target: Tissue plasminogen activator (Homo sapiens, UniProt P00750); test: isolated enzyme kinetic fluorogenic substrate IC50 assay; format: biochemical; details: 5 min pre‐incubation
Description: (§3) Protease inhibition was measured by monitoring the rate of fluorescence generation at a fixed substrate concentration over a range of inhibitor concentrations. […] To estimate the IC50, a 4‐parameter logistic dose‐response curve was fitted to the normalized rate of fluorescence increase.

[2] = target: Beta‐secretase 1 (Homo sapiens, UniProt P56817); test: as above; format: biochemical; details: 5 min pre‐incubation
Description: as §3

[3] = target: Plasmin (Homo sapiens, UniProt P00747); test: as above; format: biochemical; details: 5 min pre‐incubation
Description: as §3

[4] = test system: FXII; test: phase 1: capillary immunoassay of FXII and FXIIa in DXS‐stimulated plasma after oral KVD900; format: in vivo, human; details: healthy volunteers, 600 mg oral
Description: (§1) Undiluted plasma samples obtained at pre‐dose and post‐dose from healthy controls and HAE patients from clinical trials with KVD900, described below, were stimulated with DXS, as described above. Reactions were stopped by rapidly heating samples to 95°C for 10 min in Laemmli buffer containing β‐mercaptoethanol. Components of the KKS in plasma samples (diluted 1:20) were separated by capillary electrophoresis using 12–230 kDa separation modules in the Protein Simple WES^TM system (ProteinSimple). Proteins were detected by immunoassay and quantified from peak areas corresponding to chemiluminescence intensities using Compass for Simple Western software (Version 4.0.0, ProteinSimple) and visualized as virtual blots generated from capillary electropherograms as previously described.[18] Standard curves were generated to estimate protein concentrations in plasma using known quantities of purified HK, plasma prekallikrein (PK), FXII and FXIIa (Enzyme Research Laboratories), spiked into HK (Affinity Biologicals), PK (Affinity Biologicals) and FXII (Technoclone) deficient plasma respectively. Immunodetection was performed using primary antibodies for PK (clone 13G11) (Invitrogen), HK and cHK: KNG17A12 Antibody (Molecular Innovations), FXII and FXIIa: FXII20B2 antibody (Molecular Innovations) and horseradish peroxidase‐conjugated secondary antibody. The anti‐HK light chain antibody used detected HK and two cHK bands. The total cHK was quantified by taking the sum of the peak areas for both cHK bands.
(§2) Participants with HAE were within their intercritical period. Blood samples were collected into 3.2% sodium citrate, centrifuged at 1500 g for 10 min at 4°C, and plasma was stored at −80°C until analysis. Additional information on these trials can be found elsewhere (NCT04349800 and NCT04208412, available at https://clinicaltrials.gov).

[5] = phase 2: plasma concentrations of KVD900 in HAE subjects; format: in vivo; details: both sexes, human, HAE Type 1 and Type 2 subjects, 600 mg oral tablets, arithmetic mean, n = 42
Description: as §2

[6] = plasma protein binding, Rapid Equilibrium Dialysis; format: in vitro ADME; details: human, pH 7.4, control plasma, dialysed 5 h at 37°C, read-out: plasma protein binding (PPB) (converted)
Description: PKa enzyme activity was measured in human pooled plasma (control plasma, Affinity Biologicals) using H‐D‐Pro‐Phe‐Arg‐AFC. The KKS in plasma was stimulated by the addition of dextran sulphate 500 kDa (DXS; Sigma‐Aldrich). PKa activity in the plasma was estimated based on the maximum rate of fluorescence increase. […] Percent plasma protein binding (PPB %) was determined using Rapid Equilibrium Dialysis (Pierce RED technology, ThermoFisher Scientific). Compounds were spiked into control plasma (final concentration 5 μM) and dialysed against phosphate buffer (pH 7.4) for 5 h at 37°C. Samples were analysed using liquid chromatography‐tandem mass spectrometry to quantify the fraction of unbound compound.

[7] = target: T1, PKa (Homo sapiens, UniProt P03952); test: phase 1: DXS‐stimulated PKa activity in plasma after oral KVD900; format: in vivo; details: healthy male volunteers, 600 mg oral powder in capsule, read-out: inhibition of DXS‐stimulated PKa activity compared with pre‐dose
T1 construct: host or cells: human pooled plasma, stimulated with dextran sulphate
T1 sequence (P03952 391-638 limits assumed): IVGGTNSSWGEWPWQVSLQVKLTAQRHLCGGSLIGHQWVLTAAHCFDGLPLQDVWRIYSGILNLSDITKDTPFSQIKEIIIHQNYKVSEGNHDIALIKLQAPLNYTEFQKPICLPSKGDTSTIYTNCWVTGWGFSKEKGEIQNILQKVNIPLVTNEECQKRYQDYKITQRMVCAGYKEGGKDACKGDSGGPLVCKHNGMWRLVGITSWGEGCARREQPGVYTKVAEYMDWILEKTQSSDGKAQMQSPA
T1 sequence (P03952 20-390 partner limits assumed): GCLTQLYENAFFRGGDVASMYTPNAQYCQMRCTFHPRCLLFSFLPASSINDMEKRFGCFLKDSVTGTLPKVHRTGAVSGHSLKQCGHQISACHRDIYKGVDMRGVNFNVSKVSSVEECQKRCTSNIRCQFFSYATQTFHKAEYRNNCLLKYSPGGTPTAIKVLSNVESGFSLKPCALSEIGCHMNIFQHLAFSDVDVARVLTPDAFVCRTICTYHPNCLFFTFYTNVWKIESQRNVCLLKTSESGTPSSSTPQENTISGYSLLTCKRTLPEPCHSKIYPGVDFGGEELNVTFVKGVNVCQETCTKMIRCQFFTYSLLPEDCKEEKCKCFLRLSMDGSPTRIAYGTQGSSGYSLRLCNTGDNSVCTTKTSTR
Description: PKa enzyme activity was measured in human pooled plasma (control plasma, Affinity Biologicals) using H‐D‐Pro‐Phe‐Arg‐AFC. The KKS in plasma was stimulated by the addition of dextran sulphate 500 kDa (DXS; Sigma‐Aldrich). PKa activity in the plasma was estimated based on the maximum rate of fluorescence increase. […] Plasma samples were stimulated with 6.25 or 10 µg/ml DXS and PKa enzyme activity was measured as described above. Percent plasma protein binding (PPB %) was determined using Rapid Equilibrium Dialysis (Pierce RED technology, ThermoFisher Scientific). Compounds were spiked into control plasma (final concentration 5 μM) and dialysed against phosphate buffer (pH 7.4) for 5 h at 37°C. Samples were analysed using liquid chromatography‐tandem mass spectrometry to quantify the fraction of unbound compound.
as §2

[8] = target: Tryptase; test: isolated enzyme kinetic fluorogenic substrate IC50 assay; format: biochemical, human; details: 5 min pre‐incubation
Description: as §3

[9] = target: T1, PKa; test: phase 2: DXS‐stimulated PKa activity in HAE plasma after oral KVD900; format: in vivo; details: HAE subjects (n = 12), 600 mg oral tablets; 45 min post‐dose
[10] = target: FXIIa (Homo sapiens, UniProt P00748); test: isolated enzyme kinetic fluorogenic substrate IC50 assay; format: biochemical; details: 5 min pre‐incubation
FXIIa, sequence (P00748 373-615 limits assumed): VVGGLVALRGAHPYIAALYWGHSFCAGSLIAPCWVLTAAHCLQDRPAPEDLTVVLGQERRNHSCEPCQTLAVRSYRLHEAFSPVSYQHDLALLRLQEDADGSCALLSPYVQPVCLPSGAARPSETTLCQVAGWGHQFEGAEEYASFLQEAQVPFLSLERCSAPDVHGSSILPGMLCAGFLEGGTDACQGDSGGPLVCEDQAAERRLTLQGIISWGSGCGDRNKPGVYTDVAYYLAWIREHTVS
Description: as §3

[11] = target: Thrombin (Homo sapiens, UniProt P00734); test: as above; format: biochemical; details: 5 min pre‐incubation
Description: as §3

[12] = test system: HK cleavage; test: phase 2: DXS‐stimulated HK cleavage assay in HAE plasma after oral KVD900; format: in vivo, human
Description: as §1, §2

[13] = test system: plasma prekallikrein (PK); test: phase 1: capillary immunoassay of PK in DXS‐stimulated plasma after oral KVD900; format: in vivo, human; details: healthy volunteers, 600 mg oral
Description: as §1, §2

[14] = target: Cathepsin D (Homo sapiens, UniProt P07339); test: isolated enzyme kinetic fluorogenic substrate IC50 assay; format: biochemical; details: 5 min pre‐incubation
Cathepsin D, sequence (P07339 65-412): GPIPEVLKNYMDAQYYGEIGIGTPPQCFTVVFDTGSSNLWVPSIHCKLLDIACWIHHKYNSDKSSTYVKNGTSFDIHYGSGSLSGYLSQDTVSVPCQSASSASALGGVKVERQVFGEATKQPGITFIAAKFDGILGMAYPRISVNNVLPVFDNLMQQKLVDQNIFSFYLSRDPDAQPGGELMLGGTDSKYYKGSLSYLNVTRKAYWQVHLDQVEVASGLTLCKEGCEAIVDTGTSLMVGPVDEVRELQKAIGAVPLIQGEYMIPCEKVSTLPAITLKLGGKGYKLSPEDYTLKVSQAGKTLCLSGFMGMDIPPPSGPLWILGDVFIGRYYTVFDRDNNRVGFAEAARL
Description: as §3

[15] = target: Renin (Homo sapiens, UniProt P00797); test: as above; format: biochemical; details: 5 min pre‐incubation
Renin, sequence (P00797 67-406): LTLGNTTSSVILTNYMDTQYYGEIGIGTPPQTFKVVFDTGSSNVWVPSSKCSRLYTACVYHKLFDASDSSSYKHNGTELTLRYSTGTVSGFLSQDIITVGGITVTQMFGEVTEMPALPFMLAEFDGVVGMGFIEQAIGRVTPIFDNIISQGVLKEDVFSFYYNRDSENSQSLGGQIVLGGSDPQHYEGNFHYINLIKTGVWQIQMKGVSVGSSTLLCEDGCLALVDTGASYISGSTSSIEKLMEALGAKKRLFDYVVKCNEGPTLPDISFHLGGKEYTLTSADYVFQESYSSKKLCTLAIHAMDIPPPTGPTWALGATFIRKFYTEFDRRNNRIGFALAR
Description: as §3

[16] = target: Tissue kallikrein (Homo sapiens, UniProt P06870); test: as above; format: biochemical; details: 5 min pre‐incubation
Tissue kallikrein, sequence (P06870 25-262): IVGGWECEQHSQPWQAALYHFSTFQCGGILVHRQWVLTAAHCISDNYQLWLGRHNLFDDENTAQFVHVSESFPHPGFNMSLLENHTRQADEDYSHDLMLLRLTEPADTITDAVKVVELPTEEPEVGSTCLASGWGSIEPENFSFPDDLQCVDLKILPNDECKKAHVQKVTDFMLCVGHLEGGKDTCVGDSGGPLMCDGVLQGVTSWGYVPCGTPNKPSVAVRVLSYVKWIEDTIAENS
Description: as §3

[17] = target: Cathepsin G (Homo sapiens, UniProt P08311); test: as above; format: biochemical; details: 5 min pre‐incubation
Cathepsin G, sequence (P08311 21-255): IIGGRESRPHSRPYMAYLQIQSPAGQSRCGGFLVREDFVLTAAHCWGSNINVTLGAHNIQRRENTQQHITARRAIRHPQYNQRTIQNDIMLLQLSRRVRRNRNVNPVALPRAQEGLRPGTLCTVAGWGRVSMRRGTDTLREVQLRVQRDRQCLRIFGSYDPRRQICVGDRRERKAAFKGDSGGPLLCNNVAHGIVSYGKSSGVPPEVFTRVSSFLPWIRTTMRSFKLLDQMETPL
Description: as §3

[18] = test system: HK cleavage; test: phase 1: capillary immunoassay of HK and cHK in DXS‐stimulated plasma after oral KVD900; format: in vivo, human; details: 600 mg oral
Description: as §1, §2

[19] = target: Trypsin; test: isolated enzyme kinetic fluorogenic substrate IC50 assay; format: biochemical, human; details: 5 min pre‐incubation
Description: as §3

[20] = target: FXIa (Homo sapiens, UniProt P03951); test: as above; format: biochemical; details: 5 min pre‐incubation
FXIa, sequence (P03951 388-625 limits assumed): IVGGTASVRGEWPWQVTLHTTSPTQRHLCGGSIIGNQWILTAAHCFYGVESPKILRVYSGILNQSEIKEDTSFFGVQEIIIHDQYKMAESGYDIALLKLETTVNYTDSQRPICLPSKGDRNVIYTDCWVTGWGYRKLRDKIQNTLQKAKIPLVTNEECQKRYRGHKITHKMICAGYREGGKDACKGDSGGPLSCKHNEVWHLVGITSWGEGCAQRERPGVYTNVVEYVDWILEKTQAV
FXIa, sequence (P03951 19-387 partner limits assumed): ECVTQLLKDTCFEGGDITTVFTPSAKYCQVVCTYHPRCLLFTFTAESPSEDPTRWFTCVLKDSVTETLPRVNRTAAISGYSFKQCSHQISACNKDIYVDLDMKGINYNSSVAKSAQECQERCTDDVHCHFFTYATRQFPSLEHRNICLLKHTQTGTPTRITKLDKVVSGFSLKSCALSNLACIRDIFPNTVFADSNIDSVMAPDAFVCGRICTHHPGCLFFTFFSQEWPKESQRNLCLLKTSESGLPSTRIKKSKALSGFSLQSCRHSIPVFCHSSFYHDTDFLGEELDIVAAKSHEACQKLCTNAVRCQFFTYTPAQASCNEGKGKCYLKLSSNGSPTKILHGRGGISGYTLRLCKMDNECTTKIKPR
Description: as §3

[21] = target: FVIIa (Homo sapiens, UniProt P08709); test: as above; format: biochemical; details: 5 min pre‐incubation
FVIIa, sequence (P08709 213-466 limits assumed): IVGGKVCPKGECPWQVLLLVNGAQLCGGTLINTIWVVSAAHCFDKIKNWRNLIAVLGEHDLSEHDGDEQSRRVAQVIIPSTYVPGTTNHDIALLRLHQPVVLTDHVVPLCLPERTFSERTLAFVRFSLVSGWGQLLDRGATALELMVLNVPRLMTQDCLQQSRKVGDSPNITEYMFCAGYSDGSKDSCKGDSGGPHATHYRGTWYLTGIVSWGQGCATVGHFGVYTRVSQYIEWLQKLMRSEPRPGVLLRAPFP
FVIIa, sequence (P08709 61-212 partner limits assumed): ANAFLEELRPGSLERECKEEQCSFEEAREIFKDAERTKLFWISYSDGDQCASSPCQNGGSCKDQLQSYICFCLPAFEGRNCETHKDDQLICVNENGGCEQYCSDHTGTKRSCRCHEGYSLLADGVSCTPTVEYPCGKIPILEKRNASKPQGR
Description: as §3

[22] = test system: PKa‐mediated HK cleavage; test: capillary‐based immunoassay of DXS‐stimulated HK cleavage in control plasma; format: biochemical, human; details: for DXS‐stimulated generation of cHK: 6.25 µg/ml DXS
Description: as §1

[23] = target: FXa (Homo sapiens, UniProt P00742); test: isolated enzyme kinetic fluorogenic substrate IC50 assay; format: biochemical; details: 5 min pre‐incubation
FXa, sequence (P00742 235-488 limits assumed): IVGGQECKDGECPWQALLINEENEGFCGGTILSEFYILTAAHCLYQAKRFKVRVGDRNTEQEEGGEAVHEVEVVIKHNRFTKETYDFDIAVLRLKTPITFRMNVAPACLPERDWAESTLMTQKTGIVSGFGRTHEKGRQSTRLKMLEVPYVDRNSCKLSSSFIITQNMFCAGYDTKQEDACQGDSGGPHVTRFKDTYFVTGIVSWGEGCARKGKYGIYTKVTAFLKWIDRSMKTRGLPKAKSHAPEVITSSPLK
FXa, sequence (P00742 41-179 partner limits assumed): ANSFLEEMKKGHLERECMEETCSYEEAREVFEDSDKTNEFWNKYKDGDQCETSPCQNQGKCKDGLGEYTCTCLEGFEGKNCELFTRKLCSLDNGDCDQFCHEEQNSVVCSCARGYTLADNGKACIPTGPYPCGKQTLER
Description: as §3

[24] = test system: PKa; design: method as in PMID 7692967; details: cited from earlier work
[25] = six HAE patients, 600 mg oral tablets, 15 min through 4 h post‐dose

Beta‐secretase 1, sequence (P56817 46-501): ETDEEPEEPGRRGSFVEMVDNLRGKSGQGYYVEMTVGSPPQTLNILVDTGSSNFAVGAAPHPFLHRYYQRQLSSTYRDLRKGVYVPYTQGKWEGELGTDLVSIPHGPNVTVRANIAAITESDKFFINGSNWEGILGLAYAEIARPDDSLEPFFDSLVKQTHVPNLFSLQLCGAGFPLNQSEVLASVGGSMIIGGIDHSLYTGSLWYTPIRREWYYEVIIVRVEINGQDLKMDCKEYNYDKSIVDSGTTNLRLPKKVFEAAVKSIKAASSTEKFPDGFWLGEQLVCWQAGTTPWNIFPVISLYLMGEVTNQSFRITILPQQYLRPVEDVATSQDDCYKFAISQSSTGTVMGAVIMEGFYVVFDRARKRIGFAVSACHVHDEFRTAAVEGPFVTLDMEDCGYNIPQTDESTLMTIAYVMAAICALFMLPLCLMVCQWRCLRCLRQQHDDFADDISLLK
Tissue plasminogen activator, sequence (P00750 36-562): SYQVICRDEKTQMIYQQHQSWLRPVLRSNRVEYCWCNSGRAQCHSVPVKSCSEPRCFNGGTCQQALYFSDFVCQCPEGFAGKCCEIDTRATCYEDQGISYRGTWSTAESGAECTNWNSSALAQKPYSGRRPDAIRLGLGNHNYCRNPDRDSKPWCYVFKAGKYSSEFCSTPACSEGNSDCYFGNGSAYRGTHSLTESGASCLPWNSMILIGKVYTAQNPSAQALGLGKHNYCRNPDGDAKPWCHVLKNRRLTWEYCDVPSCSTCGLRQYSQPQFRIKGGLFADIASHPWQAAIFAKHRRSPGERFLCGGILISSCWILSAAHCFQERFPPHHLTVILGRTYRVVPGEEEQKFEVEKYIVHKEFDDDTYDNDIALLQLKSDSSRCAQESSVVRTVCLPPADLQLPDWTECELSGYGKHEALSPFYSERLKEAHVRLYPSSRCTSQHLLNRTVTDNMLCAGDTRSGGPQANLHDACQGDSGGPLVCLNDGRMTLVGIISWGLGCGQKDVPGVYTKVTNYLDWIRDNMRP

Q: Which IC50 [1] does the source give for COCc1nn(Cc2ccc(Cn3ccccc3=O)cc2)cc1C(=O)NCc1nccc(OC)c1F [KVD900] here?
A: The IC50 was over 10 µM.

Q: What about the IC50 [2] of the same molecule?
A: Its IC50 is over 10 µM.

Q: And the IC50 [3]?
A: Its IC50 is over 40 µM.

Q: What about the “FXII protection in DXS‐stimulated plasma compared with pre‐dose” value ([4]; 1 and 6 h post‐dose) of the same molecule?
A: Its value is “non‐significant”.

Q: What about the “reduction of DXS‐stimulated generation of FXIIa compared with pre‐dose” value (“reduction” for short) ([4]; 1 h post‐dose) of the same molecule?
A: Its value is over 90%.

Q: What about the “reduction” value ([4]; 6 h post‐dose) of the same molecule?
A: The value was over 90%.

Q: What about the “reduction” value ([4]; 8 h post‐dose) of the same molecule?
A: Its value is over 90%.

Q: And the Cmax [5]?
A: Its Cmax is 6.57 µg/mL.

Q: What about the Tmax [5] of the same molecule?
A: Its Tmax is 1.2 h.

Q: What about the fraction unbound at 5 h, 5 μM [6] of the same molecule?
A: The fraction unbound at 5 h, 5 μM was 0.23.

Q: What about the inhibition at 600 mg ([7]; 1 h post‐dose) of the same molecule?
A: The inhibition at 600 mg was over 97%.

Q: And the inhibition at 600 mg ([7]; 4 h post‐dose)?
A: The inhibition at 600 mg was over 97%.

Q: What about the inhibition at 600 mg ([7]; 6 h post‐dose) of the same molecule?
A: The inhibition at 600 mg was over 90%.

Q: What about the inhibition at 600 mg ([7]; 8 h post‐dose) of the same molecule?
A: Its inhibition at 600 mg is over 83%.

Q: What about the IC50 [8] of the same molecule?
A: Its IC50 is over 10 µM.

Q: And the inhibition at 600 mg [9]?
A: The inhibition at 600 mg was at least 95%.

Q: And the IC50 [10]?
A: The IC50 was over 40 µM.

Q: What about the IC50 [11] of the same molecule?
A: Its IC50 is over 40 µM.

Q: And the “time post‐dose from which inhibition of HK cleavage (and PKa activity) is observed” value ([12]; 600 mg oral)?
A: Its value is 15 min.

Q: And the “cHK levels in DXS‐stimulated plasma” value [12, 25]?
A: The value was “comparable with unstimulated plasma”.

Q: And the “protection from DXS‐stimulated depletion of HK” value [12, 25]?
A: The value was “strongly protected”.

Q: And the “PK after DXS‐stimulation, % of unstimulated plasma” value ([13]; 1 h post‐dose)?
A: Its value is 82.7 ± 4.4%.

Q: What about the “PK after DXS‐stimulation, % of unstimulated plasma” value ([13]; 6 h post‐dose) of the same molecule?
A: Its value is 87.0± 4.1%.

Q: What about the “DXS‐stimulated decrease in PK” value ([13]; later time points (≥8 h)) of the same molecule?
A: The value was “comparable to the PK decrease observed in pre‐dose samples”.

Q: What about the IC50 [14] of the same molecule?
A: Its IC50 is over 10 µM.

Q: And the IC50 [15]?
A: The IC50 was over 10 µM.

Q: And the IC50 [16]?
A: Its IC50 is over 10 µM.

Q: What about the IC50 [17] of the same molecule?
A: The IC50 was over 10 µM.

Q: And the “time for which DXS‐stimulated generation of cHK was not detectable” value [18]?
A: The value was “at least 6 h”.

Q: And the “cHK levels in DXS‐stimulated plasma” value ([18]; healthy volunteers, 1, 6 and 8 h post‐dose)?
A: The value was “not significantly increased compared with pre‐dose without DXS”.

Q: And the “HK remaining after DXS‐stimulation” value ([18]; healthy volunteers, 1 to 8 hours post‐dose)?
A: Its value is over 65%.

Q: And the IC50 [19]?
A: The IC50 was over 40 µM.

Q: What about the IC50 [20] of the same molecule?
A: Its IC50 is over 40 µM.

Q: What about the IC50 [21] of the same molecule?
A: The IC50 was over 10 µM.

Q: And the “DXS‐stimulated generation of cHK” value ([22]; 300 nM)?
A: Its value is “fully inhibited”.

Q: And the “DXS‐stimulated generation of cHK” value ([22]; 1000 nM)?
A: The value was “fully inhibited”.

Q: What about the IC50 ([22]; control plasma, 15 min pre‐treatment, 6.25 µg/ml DXS on ice 17 min, read-out: IC50, protection of HK from DXS‐stimulated depletion) of the same molecule?
A: Its IC50 is about 0.2 µM.

Q: What about the IC50 [23] of the same molecule?
A: The IC50 was over 10 µM.

B1: DX‐2930: PKa inhibitor DX‐2930 (lanadelumab), approved treatment for HAE (antibody, chains of the INN, looked up, V domains shown)
VH: EVQLLESGGGLVQPGGSLRLSCAASGFTFSHYIMMWVRQAPGKGLEWVSGIYSSGGITVYADSVKGRFTISRDNSKNTLYLQMNSLRAEDTAVYYCAYRRIGVPRRDEFDIWGQGTMVTVSS
VL: DIQMTQSPSTLSASVGDRVTITCRASQSISSWLAWYQQKPGKAPKLLIYKASTLESGVPSRFSGSGSGTEFTLTISSLQPDDFATYYCQQYNTYWTFGQGTKVEIK
Q: Which “reported Kon for PKa” value [24] does the source give for B1 here?
A: Its value is 3.4e+06 M⁻¹ s⁻¹.

B2: C1‐INH: serine protease inhibitor (serpin) that covalently binds and inactivates PKa and FXIIa (protein, UniProt P05155 23-500, looked up)
Plasma protease C1 inhibitor: NPNATSSSSQDPESLQDRGEGKVATTVISKMLFVEPILEVSSLPTTNSTTNSATKITANTTDEPTTQPTTEPTTQPTIQPTQPTTQLPTDSPTQPTTGSFCPGPVTLCSDLESHSTEAVLGDALVDFSLKLYHAFSAMKKVETNMAFSPFSIASLLTQVLLGAGENTKTNLESILSYPKDFTCVHQALKGFTTKGVTSVSQIFHSPDLAIRDTFVNASRTLYSSSPRVLSNNSDANLELINTWVAKNTNNKISRLLDSLPSDTRLVLLNAIYLSAKWKTTFDPKKTRMEPFHFKNSVIKVPMMNSKKYPVAHFIDQTLKAKVGQLQLSHNLSLVILVPQNLKHRLEDMEQALSPSVFKAIMEKLEMSKFQPTLLTLPRIKVTTSQDMLSIMEKLEFFDFSYDLNLCGLTEDPDLQVSAMQHQTVLELTETGVEAAAASAISVARTLLVFEVQQPFLFVLWDQQHKFPVFMGRVYDPRA
Q: For B2, which “reported Kon for PKa” value [24] is on record?
A: Its value is 17000 M⁻¹ s⁻¹.

Source: article PMC9544254 (Clinical and Experimental Allergy, 2022)
